Measured values taken from patent US9145437B2, “Urea compounds” (Eli Lilly and Company, priority 2013, dated 2015).

Columns and labels:
human SGLT1 = target: T1, human SGLT1 (Homo sapiens, UniProt P13866); experiment: Sodium-dependent 14C-AMG uptake assay in CHO-K1 cells expressing human SGLT1; format: cell-based; details: n=5
T1 construct: expressed in transfected cells
T1 sequence (P13866 1-664): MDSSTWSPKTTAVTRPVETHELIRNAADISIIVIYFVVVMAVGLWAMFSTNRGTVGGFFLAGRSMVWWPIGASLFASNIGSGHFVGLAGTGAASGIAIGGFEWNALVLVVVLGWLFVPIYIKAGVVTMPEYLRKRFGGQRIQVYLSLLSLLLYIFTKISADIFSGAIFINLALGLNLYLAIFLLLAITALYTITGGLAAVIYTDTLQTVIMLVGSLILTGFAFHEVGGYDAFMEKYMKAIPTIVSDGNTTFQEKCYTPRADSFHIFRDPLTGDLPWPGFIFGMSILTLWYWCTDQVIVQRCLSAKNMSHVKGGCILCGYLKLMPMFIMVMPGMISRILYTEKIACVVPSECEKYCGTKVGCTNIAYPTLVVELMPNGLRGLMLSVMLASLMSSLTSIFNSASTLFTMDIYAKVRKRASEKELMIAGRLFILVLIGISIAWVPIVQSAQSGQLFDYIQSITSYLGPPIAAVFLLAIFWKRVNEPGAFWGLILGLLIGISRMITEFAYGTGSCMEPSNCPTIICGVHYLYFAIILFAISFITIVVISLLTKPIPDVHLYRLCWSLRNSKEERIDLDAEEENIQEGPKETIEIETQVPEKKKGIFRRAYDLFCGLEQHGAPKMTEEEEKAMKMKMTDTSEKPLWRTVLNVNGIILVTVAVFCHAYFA
Source text: (§1) The cDNA encoding human SGLT1 (slc5al, NM_000343) and mouse SGLT1 (slc5al, NM_019810.4) are purchased from Openbiosystems, Invitrogen and Openbiosystems, respectively. The cDNA is cloned into pcDNA3.1+ for mammalian expression and is stably transfected into Chinese hamster ovary (CHO)-K1 cells using standard mammalian transfection procedures. An SGLT-expressing sub-clone of each over-expressing cell line is selected based on resistance to neomycin (Geneticin, Invitrogen) and activity in the ^14C-α-methyl-D-glucopyranoside (^14C-AMG) uptake assay (see below). Stable SGLT-expressing cells are maintained using standard cell culture techniques.
(§2) The SGLT activity is measured as sodium-dependent ^14C-AMG uptake in the above cell lines described as follows. One hundred μL of culture medium containing 30,000 cells are seeded to each well of a 96-well BioCoat poly-D-lysine plate (Becton Dickson) and cultured at 37° C. overnight. The culture medium is aspirated and cells are washed twice with 200 μL of Reaction Buffer (140 mM NaCl, 2 mM KCl, 1 mM CaCl2, MgCl2, and 14 mM N-2-hydroethylpiperrazine-N′-2-ethanesulfonic acid (Hepes), pH 7.5). The excess buffer is tapped out onto paper towels. Thirty-five μL of Reaction Buffer are added to each well. […] After mixing, the scintillation signal in the plate is counted in a MicroBeta (PerkinElmer). […]

mouse SGLT1 = target: T2, mouse SGLT1 (Mus musculus, UniProt Q8C3K6); experiment: Sodium-dependent 14C-AMG uptake assay in CHO-K1 cells expressing mouse SGLT1; format: cell-based; details: n=5
T2 construct: expressed in transfected cells
T2 sequence (Q8C3K6 1-665): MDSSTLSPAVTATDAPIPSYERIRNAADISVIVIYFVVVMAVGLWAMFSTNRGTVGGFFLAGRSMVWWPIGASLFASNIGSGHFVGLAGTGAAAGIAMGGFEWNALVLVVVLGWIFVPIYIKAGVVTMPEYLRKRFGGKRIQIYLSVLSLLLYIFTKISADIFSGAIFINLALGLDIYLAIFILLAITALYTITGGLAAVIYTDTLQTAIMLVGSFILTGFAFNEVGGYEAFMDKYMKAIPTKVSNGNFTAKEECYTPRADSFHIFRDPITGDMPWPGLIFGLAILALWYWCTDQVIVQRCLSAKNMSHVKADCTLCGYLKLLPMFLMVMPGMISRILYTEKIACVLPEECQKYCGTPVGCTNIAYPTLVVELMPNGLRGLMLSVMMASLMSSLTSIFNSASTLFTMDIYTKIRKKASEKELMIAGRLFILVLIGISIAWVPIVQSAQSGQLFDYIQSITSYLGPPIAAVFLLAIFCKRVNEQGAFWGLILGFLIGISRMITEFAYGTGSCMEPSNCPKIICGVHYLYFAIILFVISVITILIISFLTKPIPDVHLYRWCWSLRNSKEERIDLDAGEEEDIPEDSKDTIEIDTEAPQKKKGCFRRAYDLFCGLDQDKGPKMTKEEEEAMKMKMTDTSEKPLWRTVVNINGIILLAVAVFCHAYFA
Source text: as §1, §2

C57Bl/6 mice = experiment: Glucose lowering effects in oral glucose tolerance test (OGTT); format: in vivo, mouse; design: Baseline Adjusted AUC (glucose): unit not given here; details: for Glucose 20 Minute / Glucose 40 Minute / Glucose 60 Minute / Baseline Adjusted AUC (glucose) / Glucose Cmax / Glucose Tmax / Glucose 0 Minute: 10 mg/kg oral, Mean ± SEM; for Glucose 20 Minute: 20 min after 3 g/kg dextrose; for Glucose 40 Minute: 40 min after 3 g/kg dextrose; for Glucose 60 Minute: 60 min after 3 g/kg dextrose; for Glucose 0 Minute: baseline before 3 g/kg dextrose
Experimental: The test compound is formulated by adding a vehicle of 1% hydroxyethylcellulose, 0.25% Tween® 80 w/antifoam 0.05% to preweighed test compound to make a 1 mg/ml solution. The mixture is probe sonicated for approximately 1 minute. A stir bar is added, and the resulting suspension is stirred continuously throughout dosing.
The first set of mice receiving an OGTT 18 hours after compound administration, the second 8 hours after compound administration. The first set of animals are weighed and body weights used to determine study groups (n=5), within a working range of 26-30 g. After grouping, the mice are orally gavaged with 10 ml/kg of test compound preparation or vehicle, thirty seconds apart. […] Both sets, 18 and 8 hour OGTT, of mice are then fasted overnight by removing access to food, late afternoon before test day. The following morning, the 8 hour OGTT mice are weighed and bled (via tail snip) for glucose. Study groups (n=5) are determine using fasted glucose values, within a working range of 80-100 mg/dl. After grouping the mice are orally gavaged with compound, thirty seconds apart. These mice then receive an OGTT 8 hours after compound administration.
At eight and eighteen hours after each respective compound treatment is started, a baseline blood sample is taken for measuring glucose (from the first animal). The animal is then immediately given an oral dose of 50% dextrose (Hospira®) at 3 g/kg. Blood samples are taken for glucose, exactly thirty seconds apart, by tail vein so that blood is collected in each animal at 20, 40, and 60 minutes after the dextrose dose.

IC50 (human SGLT1): 35.2 ± 14.1 nM | IC50 (mouse SGLT1): 14.9 ± 10.4 nM
Compound: Cc1cccc2c1c(Cc1ccc(OCCCN3CCCC4(CCN(C(=O)CNC(=O)NCC(C)C)CC4)C3)cc1)cn2[C@@H]1O[C@H](CO)[C@@H](O)[C@H](O)[C@H]1O [Example 1, 1-isobutyl-3-[2-[4-[3-[4-[[4-methyl-1-[(2R,3R,4S,5S,6R)-3,4,5-trihydroxy-6-(hydroxymethyl)tetrahydropyran-2-yl]indol-3-yl]methyl]phenoxy]propyl]-4,9-diazaspiro[5.5]undecan-9-yl]-2-oxo-ethyl]urea]
Glucose 20 Minute (C57Bl/6 mice; OGTT 8 hrs post dose): 114 ± 3.36 mg/dL | Glucose 40 Minute (C57Bl/6 mice; OGTT 8 hrs post dose): 131 ± 6.81 mg/dL | Glucose 60 Minute (C57Bl/6 mice; OGTT 8 hrs post dose): 125.8 ± 7.52 mg/dL | Baseline Adjusted AUC (glucose) (C57Bl/6 mice; OGTT 8 hrs post dose): 2370 ± 315 | Glucose Cmax (C57Bl/6 mice; OGTT 8 hrs post dose): 132.9 ± 6.68 mg/dL | Glucose Tmax (C57Bl/6 mice; OGTT 8 hrs post dose): 44 ± 7.48 min | Glucose 0 Minute (C57Bl/6 mice; OGTT 8 hrs post dose): 75.8 ± 2.48 mg/dL | Glucose 20 Minute (C57Bl/6 mice; OGTT 18 hrs post dose): 121.4 ± 5.16 mg/dL | Glucose 40 Minute (C57Bl/6 mice; OGTT 18 hrs post dose): 127 ± 9.78 mg/dL | Glucose 60 Minute (C57Bl/6 mice; OGTT 18 hrs post dose): 125 ± 7.27 mg/dL | Baseline Adjusted AUC (glucose) (C57Bl/6 mice; OGTT 18 hrs post dose): 2258 ± 252 | Glucose Cmax (C57Bl/6 mice; OGTT 18 hrs post dose): 134.2 ± 6.72 mg/dL | Glucose Tmax (C57Bl/6 mice; OGTT 18 hrs post dose): 44 ± 7.48 min | Glucose 0 Minute (C57Bl/6 mice; OGTT 18 hrs post dose): 79.2 ± 4.51 mg/dL | glucose excursion after oral bolus of 50% dextrose (C57Bl/6 mice; normal glycemic C57Bl/6 mouse, eight or eighteen hours after administration): decrease
